Results from patent publication US20230233617A1, “METHODS FOR DIFFERENTIATING STEM CELLS INTO DOPAMINERGIC PROGENITOR CELLS” (JZ CELL TECHNOLOGIES AB, priority 2020, published 2023).

What was measured:
CYP26 = details: cited from earlier work
β-catenin = test: β-CATENIN nuclear levels in cultures at 2 DDC; format: cell-based, human; details: dSMADi+SAG
Excerpt: FIG. 2: Specification of NSC with ventral midbrain identity using RA and SHH signaling. (a) Schematic of hPSCs differentiation with timeline of treatment with RA and activator of SHH signaling (SAG) (top). Immunocytochemistry for indicated markers at 9 DDC in cultures differentiated in dSMADi+SAG-condition and pulsed with RA for 1-, 2- or 4-days (bottom). (b) Relative gene expression (FPKM) of indicated genes in 9 DDC cultures differentiated in dSMADi+SAG-conditions and treated with RA for the indicated time. (c) Heatmap and hierarchical clustering of differentially expressed genes of 9 DDC cultures differentiated in dSMADi+SAG-condition and treated with RA for the indicated time. (d) Schematic of gene expression profiles defining distinct ventral progenitors in the diencephalon (Di), midbrain (MB) and hindbrain (HB) positions. (e) Expression of genes associated with the indicated regional progenitors at 14 DDC in cultures differentiated in dSMADi+SAG+RA^2D condition. (f) Immunocytochemistry for β-CATENIN (left) and boxplots of β-CATENIN nuclear levels (right) in cultures at 2 DDC differentiated in dSMADi+SAG-condition (control) and treated with RA or CHIR99021. Boxplot, whiskers define 5th and 95th percentile. Asterisks, Student t test; **p<0.01, ***p<0.001. (g) Immunocytochemistry for the indicated markers in cultures at 14 DDC differentiated in dSMADi+SAG+RA^2D condition. […]

CC1=C(/C=C/C(C)=C/C=C/C(C)=C/C(=O)O)C(C)(C)CCC1 [RA, all-trans retinoic acid]
susceptibility to CYP26-mediated oxidation (CYP26): substrates for CYP26-mediated oxidation
β-catenin in nuclei (β-catenin): no accumulation of β-catenin in nuclei
